Experimental data reported in patent US8697744B2, “Substituted 5,6-dihydro-4H-thiazolo[4,5-E]indazoles and their use as positive allosteric modulators of metabotropic glutamate receptors” (Addex Pharma S.A., priority 2009, dated 2014).

How the values were obtained:
[1] = molecular target: T1, recombinant human mGluR4a receptors (Homo sapiens, UniProt Q14833); assay: mGluR4 assay on HEK-expressing human mGluR4: fluorescent cell based Ca2+ mobilization assay (FLIPR); conditions: HEK-293 cells expressing hmGluR4; enhancement of EC25 glutamate response; mean of at least three independent experiments in duplicate; read-out: Ca^2+ Flux (mean EC50)
T1 construct: expressed in transfected cells
T1 sequence (Q14833 33-912): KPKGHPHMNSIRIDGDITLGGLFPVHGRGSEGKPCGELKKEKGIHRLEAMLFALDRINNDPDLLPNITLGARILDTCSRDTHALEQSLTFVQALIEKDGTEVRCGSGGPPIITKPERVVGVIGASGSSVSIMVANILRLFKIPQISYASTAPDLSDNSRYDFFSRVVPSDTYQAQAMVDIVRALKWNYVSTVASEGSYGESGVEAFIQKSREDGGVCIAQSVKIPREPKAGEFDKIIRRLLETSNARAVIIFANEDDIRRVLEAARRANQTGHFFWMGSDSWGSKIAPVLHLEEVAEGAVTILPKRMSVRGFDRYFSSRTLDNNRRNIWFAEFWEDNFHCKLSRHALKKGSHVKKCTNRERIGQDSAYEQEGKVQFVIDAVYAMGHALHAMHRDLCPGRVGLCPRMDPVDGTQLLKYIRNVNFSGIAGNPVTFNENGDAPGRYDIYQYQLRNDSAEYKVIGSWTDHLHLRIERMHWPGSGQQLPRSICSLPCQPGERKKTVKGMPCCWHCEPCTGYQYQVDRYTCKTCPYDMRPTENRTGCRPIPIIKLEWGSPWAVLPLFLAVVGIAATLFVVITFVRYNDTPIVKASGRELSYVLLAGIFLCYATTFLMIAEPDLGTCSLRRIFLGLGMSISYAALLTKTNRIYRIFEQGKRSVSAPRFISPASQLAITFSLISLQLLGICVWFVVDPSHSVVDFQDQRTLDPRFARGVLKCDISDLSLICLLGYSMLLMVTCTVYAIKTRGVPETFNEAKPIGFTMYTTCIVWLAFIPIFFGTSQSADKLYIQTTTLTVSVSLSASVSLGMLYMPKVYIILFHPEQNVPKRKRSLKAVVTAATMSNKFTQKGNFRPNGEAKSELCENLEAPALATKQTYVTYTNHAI
Excerpt: mGluR4 Assay on HEK-Expressing Human mGluR4
The compounds of the present invention are positive allosteric modulators of mGluR4 receptor. Their activity was examined on recombinant human mGluR4a receptors by detecting changes in intracellular Ca^2+ concentration, using the fluorescent Ca^2+-sensitive dye Fluo-4-(AM) and a Fluorometric Imaging Plate Reader (FLIPR, Molecular Devices, Sunnyvale, Calif.).
The cDNA encoding the human metabotropic glutamate receptor (hmGluR4), (accession number NM_000841.1, NCBI Nucleotide database browser), was subcloned into an expression vector containing also the hygromycin resistance gene. In parallel, the cDNA encoding a G protein allowing redirection of the activation signal to intracellular calcium flux was subcloned into a different expression vector containing also the puromycin resistance gene. Transfection of both these vectors into HEK293 cells with PolyFect reagent (Qiagen) according to supplier's protocol, and hygromycin and puromycin treatment allowed selection of antibiotic resistant cells which had integrated stably one or more copies of the plasmids. Positive cellular clones expressing hmGluR4 were identified in a functional assay measuring changes in calcium fluxes in response to glutamate or selective known mGluR4 orthosteric agonists and antagonists. HEK-293 cells expressing hmGluR4 were maintained in media containing DMEM, dialyzed Fetal Calf Serum (10%), Glutamax™ (2 mM), Penicillin (100 units/mL), Streptomycin (100 μg/mL), Geneticin (100 μg/mL) and Hygromycin-B (40 μg/mL) and puromycin (1 μg/mL) at 37° C./5% CO2.
Human mGluR4HEK-293 cells were plated out 24 hours prior to FLIPR^384 assay in black-walled, clear-bottomed, poly-L-ornithine-coated 384-well plates at a density of 25,000 cells/well in a glutamine/glutamate free DMEM medium containing foetal bovine serum (10%), penicillin (100 units/mL) and streptomycin (100 μg/mL) at 37° C./5% CO2.
On the day of the assay, the medium was aspirated and the cells were loaded with a 3 μM solution of Fluo-4-AM (LuBioScience, Lucerne, Switzerland) in 0.03% pluronic acid. After 1 hour at 37° C./5% CO2, the non incorporated dye was removed by washing cell plate with the assay buffer and the cells were left in the dark at room temperature for […] before testing. All assays were performed in a pH 7.4 buffered-solution containing 20 mM HEPES, 143 mM NaCl, 6 mM KCl, 1 mM MgSO4, 1 mM CaCl2, 0.125 mM sulfapyrazone and 0.1% glucose.
After 10 s of basal fluorescence recording, various concentrations of the compounds of the invention were added to the cells. Changes in fluorescence levels were first monitored for 180 s in order to detect any agonist activity of the compounds. Then the cells were stimulated by an EC25 glutamate concentration for an additional 110 s in order to measure enhancing activities of the compounds of the invention. EC25 glutamate concentration is the concentration giving 25% of the maximal glutamate response.
The concentration-response curves of representative compounds of the present invention were generated using the Prism GraphPad software (Graph Pad Inc, San Diego, USA). The curves were fitted to a four-parameter logistic equation: (Y=Bottom+(Top−Bottom)/(1+10^((LogEC50−X)*Hill Slope) allowing the determination of EC50 values.
The Table 3 below represents the mean EC50 obtained from at least three independent experiments of selected molecules performed in duplicate.

| melting point | EC50 [1] | Structure (SMILES) |
| --- | --- | --- |
| 314 °C (dec.) |  | Fc1cccc(Nc2nc3c(s2)CCCc2[nH]ncc2-3)n1 |
| 297 to 299 °C | < 0.1 µM | c1ccc(Nc2nc3c(s2)CCc2[nH]ncc2-3)nc1 [Compound 1-1, N-(Pyridin-2-yl)-5,6-dihydro-4H-thiazolo[4,5-e]indazol-2-amine] |
| 167 to 168 °C |  | CC(C)C(=O)n1ncc2c1CCc1sc(Nc3ccccn3)nc1-2 [Compound 1-2, 2-Methyl-1-(2-(pyridin-2-ylamino)-4H-thiazolo[4,5-e]indazol-6(5H)-yl)propan-1-one] |
| 280 °C | 0.1 to 1 µM | Cc1cccc(Nc2nc3c(s2)CCc2[nH]ncc2-3)n1 [Compound 1-3, N-(6-Methylpyridin-2-yl)-5,6-dihydro-4H-thiazolo[4,5-e]indazol-2-amine] |
| > 300 °C |  | Clc1cccc(Nc2nc3c(s2)CCc2[nH]ncc2-3)n1 [Compound 1-4, N-(6-Chloropyridin-2-yl)-5,6-dihydro-4H-thiazolo[4,5-e]indazol-2-amine] |
| 270 °C (dec.) | 0.1 to 1 µM | Fc1ccc(F)c(Nc2nc3c(s2)CCc2[nH]ncc2-3)c1 [Compound 1-5, N-(2,5-Difluorophenyl)-5,6-dihydro-4H-thiazolo[4,5-e]indazol-2-amine] |
| > 300 °C | 0.1 to 1 µM | Fc1cccc(Nc2nc3c(s2)CCc2[nH]ncc2-3)n1 [Compound 1-6, N-(6-Fluoropyridin-2-yl)-5,6-dihydro-4H-thiazolo[4,5-e]indazol-2-amine] |
|  | < 0.1 µM | c1ccc(Nc2nc3c(s2)CCCc2[nH]ncc2-3)nc1 [Compound 1-8, Pyridin-2-yl-(4,5,6,7-tetrahydro-3-thia-1,7,8-triaza-cyclopenta[e]azulen-2-yl)-amine] |
| 317 to 319 °C |  | CCC1Cc2[nH]ncc2-c2nc(Nc3ccccn3)sc21 (centres unmarked) [Compound 1-9, 4-Ethyl-N-(pyridin-2-yl)-5,6-dihydro-4H-thiazolo[4,5-e]indazol-2-amine] |
| 300 °C (dec.) |  | Fc1cccnc1Nc1nc2c(s1)CCc1[nH]ncc1-2 [Compound 1-10, N-(3-Fluoropyridin-2-yl)-5,6-dihydro-4H-thiazolo[4,5-e]indazol-2-amine] |
| 312 °C (dec.) |  | Cc1cccc(Nc2nc3c(s2)CCCc2[nH]ncc2-3)n1 [Compound 1-11, (6-Methyl-pyridin-2-yl)-(4,5,6,7-tetrahydro-3-thia-1,7,8-triaza-cyclopenta[e]azulen-2-yl)-amine] |
| 314 °C (dec.) |  | Fc1ccc(Nc2nc3c(s2)CCCc2[nH]ncc2-3)nc1 [Compound 1-12, (5-Fluoro-pyridin-2-yl)-(4,5,6,7-tetrahydro-3-thia-1,7,8-triaza-cyclopenta[e]azulen-2-yl)-amine] |
| 300 °C (dec.) | < 0.1 µM | Fc1cccnc1Nc1nc2c(s1)CCCc1[nH]ncc1-2 [Compound 1-13, (3-Fluoro-pyridin-2-yl)-(4,5,6,7-tetrahydro-3-thia-1,7,8-triaza-cyclopenta[e]azulen-2-yl)-amine] |
| 300 °C (dec.) | 1 to 10 µM | COc1cccc(Nc2nc3c(s2)CCCc2[nH]ncc2-3)n1 [Compound 1-14, (6-Methoxy-pyridin-2-yl)-(4,5,6,7-tetrahydro-3-thia-1,7,8-triaza-cyclopenta[e]azulen-2-yl)-amine] |
| 315 °C (dec.) |  | Fc1ccc(Nc2nc3c(s2)CCc2[nH]ncc2-3)nc1 [Compound 1-15, N-(5-Fluoropyridin-2-yl)-5,6-dihydro-4H-thiazolo[4,5-e]indazol-2-amine] |
| 314 °C (dec.) |  | Clc1cccc(Nc2nc3c(s2)CCCc2[nH]ncc2-3)n1 [Compound 1-16, (6-Chloro-pyridin-2-yl)-(4,5,6,7-tetrahydro-3-thia-1,7,8-triaza-cyclopenta[e]azulen-2-yl)-amine] |
| > 330 °C |  | c1cnc(Nc2nc3c(s2)CCc2[nH]ncc2-3)cn1 [Compound 1-17, N-(Pyrazin-2-yl)-5,6-dihydro-4H-thiazolo[4,5-e]indazol-2-amine] |
| 166 to 168 °C |  | c1n[nH]c2c1-c1nc(NC3CCCC3)sc1CC2 [Compound 1-18, N-Cyclopentyl-5,6-dihydro-4H-thiazolo[4,5-e]indazol-2-amine] |
| 144 to 146 °C |  | c1n[nH]c2c1-c1nc(NC3CCC3)sc1CC2 [Compound 1-20, N-Cyclobutyl-5,6-dihydro-4H-thiazolo[4,5-e]indazol-2-amine] |
| 178 to 182 °C |  | c1n[nH]c2c1-c1nc(NC3CC3)sc1CCC2 [Compound 1-22, Cyclopropyl-(4,5,6,7-tetrahydro-3-thia-1,7,8-triaza-cyclopenta[e]azulen-2-yl)-amine] |
| 198 to 221 °C |  | c1n[nH]c2c1-c1nc(NC3CCC3)sc1CCC2 [Compound 1-23, Cyclobutyl-(4,5,6,7-tetrahydro-3-thia-1,7,8-triaza-cyclopenta[e]azulen-2-yl)-amine] |
| 248 °C (dec.) |  | c1n[nH]c2c1-c1nc(NC3CCCC3)sc1CCC2 [Compound 1-24, Cyclopentyl-(4,5,6,7-tetrahydro-3-thia-1,7,8-triaza-cyclopenta[e]azulen-2-yl)-amine] |
| 310 °C (dec.) |  | c1cnc(Nc2nc3c(s2)CCCc2[nH]ncc2-3)nc1 [Compound 1-25, Pyrimidin-2-yl-(4,5,6,7-tetrahydro-3-thia-1,7,8-triaza-cyclopenta[e]azulen-2-yl)-amine] |
| 281 to 282 °C |  | c1cnc(Nc2nc3c(s2)CCc2[nH]ncc2-3)nc1 [Compound 1-26, N-(Pyrimidin-2-yl)-5,6-dihydro-4H-thiazolo[4,5-e]indazol-2-amine] |
| 288 to 293 °C |  | Cn1ccc(Nc2nc3c(s2)CCCc2[nH]ncc2-3)n1 [Compound 1-27, (1-Methyl-1H-pyrazol-3-yl)-(4,5,6,7-tetrahydro-3-thia-1,7,8-triaza-cyclopenta[e]azulen-2-yl)-amine] |
| 283 °C (dec.) |  | Cc1ccnc(Nc2nc3c(s2)CCc2[nH]ncc2-3)n1 [Compound 1-29, N-(4-Methylpyrimidin-2-yl)-5,6-dihydro-4H-thiazolo[4,5-e]indazol-2-amine] |
| 297 °C (dec.) |  | Cc1ccnc(Nc2nc3c(s2)CCCc2[nH]ncc2-3)n1 [Compound 1-30, (4-Methyl-pyrimidin-2-yl)-(4,5,6,7-tetrahydro-3-thia-1,7,8-triaza-cyclopenta[e]azulen-2-yl)-amine] |
| 298 to 306 °C |  | CC1(C)Cc2[nH]ncc2-c2nc(Nc3ncccn3)sc21 [Compound 1-32, 4,4-Dimethyl-N-(pyrimidin-2-yl)-5,6-dihydro-4H-thiazolo[4,5-e]indazol-2-amine] |
| > 373 °C |  | CC1Cc2[nH]ncc2-c2nc(Nc3ncccn3)sc21 (centres unmarked) [Compound 1-33, 4-Methyl-N-(pyrimidin-2-yl)-5,6-dihydro-4H-thiazolo[4,5-e]indazol-2-amine] |
